Two compounds from patent US9375450B2, “Vaginal tissue rejuvenation compositions and methods” (priority 2011, dated 2016) can be followed below.

Structures are written as SMILES.

For experiment [1], the system named is ovariectomized (OVX) Sprague-Dawley rats. The experiment is described as follows: Vaginal histology and histomorphometry after 2 weeks vaginal suppositories. Type of experiment: in vivo, rat. Particulars: vaginal suppositories 2 weeks; for vaginal epithelial thickness / vaginal muscularis thickness / vaginal lamina propria thickness / vaginal thickness (all three layers of the vagina) / lamina propria collagen fiber compactness: mean±SD; for vaginal epithelial thickness: placebo 57±18; for vaginal muscularis thickness: placebo 121±44; for vaginal lamina propria thickness: placebo 179±71; for vaginal thickness (all three layers of the vagina): placebo 358±86; for vaginal epithelial cornification rate: placebo 0%; for lamina propria collagen fiber compactness: scale 0-5 (0=loose, 5=tight), placebo 4.5±0.6. The protocol: Ten to 12-weeks old female ovariectomized (OVX) Sprague-Dawley rats were utilized for the experiments. The animals were acclimatized to the environmental conditions before starting the experiment. The animals were housed individually and were allowed free access to water and rodent food. […] The suppositories were prepared according to the fusion method, using a polypeg suppository base ([…]., USA). […] Using a microwave, the suppository base was melted in a small beaker for 3 min and then transferred and kept into a water bath at a temperature of 55° C. The proper amount of above reagent was added to the liquefied base and meticulously crushed with a smooth rounded-end glass rod for about 20 min to make the solution to be even and clear. A pipette tip was used to suck some amount of solution and push it into a plastic tube with a diameter of 3.5 mm, and the tube was immediately left on the flat surface of an ice bucket. The suppository turned to white in color when it was solid. The moulded suppository was then pushed out of the tube using a round rod. […] After 30 min of cooling at room temperature, the suppositories were stored at 4° C. in a closed chamber until use. They were left to reach room temperature before use. The day after the last treatment the rats were overnight fasted and then sacrificed. Macroscopic measurement (genital hiatus, vaginal length) were taken and the vagina was dissected out carefully to avoid any injury to the vagina. The mid section of the vagina was utilized for histology (H and E stain, Masson's trichrome stain) and immunofluorescence and the rest of the vagina was used for RNA extraction and RT-PCR. […] For each animal, a 4 μm-thick paraffin section was cut and stained with haematoxylineosin and with Masson's trichrome stain for morphological examination. […] The cornification was determined by the presence of a keratin layer on the vaginal epithelium. Measurements of the different vaginal layers were performed on the fifth segment of the vagina, which is approximately halfway between the middle region and the portio vaginalis uteri. […] Images were captured with a color digital camera and quantified using ImageJ software was used. […] The thickness of the lamina propria was obtained by deducting the thickness of the epithelium and muscularis from total vaginal thickness.

The test system is the same in experiment [2]. The experiment can be described thus: Macroscopic measurements (genital hiatus, vaginal length) after 2 weeks vaginal suppositories. Type of experiment: in vivo, rat. To be noted: vaginal suppositories 2 weeks (20 μM zinc sulfate, 10 nM GW501516, 0.01% estradiol), mean±SD; for genital hiatus (distance between the external urethral meatus and the mid anus): placebo 12.6±1.1; for vaginal length: placebo 14.1±1.1. Here is the method: Ten to 12-weeks old female ovariectomized (OVX) Sprague-Dawley rats were utilized for the experiments. The animals were acclimatized to the environmental conditions before starting the experiment. The animals were housed individually and were allowed free access to water and rodent food. […] The suppositories were prepared according to the fusion method, using a polypeg suppository base ([…]., USA). […] Using a microwave, the suppository base was melted in a small beaker for 3 min and then transferred and kept into a water bath at a temperature of 55° C. The proper amount of above reagent was added to the liquefied base and meticulously crushed with a smooth rounded-end glass rod for about 20 min to make the solution to be even and clear. A pipette tip was used to suck some amount of solution and push it into a plastic tube with a diameter of 3.5 mm, and the tube was immediately left on the flat surface of an ice bucket. The suppository turned to white in color when it was solid. The moulded suppository was then pushed out of the tube using a round rod. […] After 30 min of cooling at room temperature, the suppositories were stored at 4° C. in a closed chamber until use. They were left to reach room temperature before use. The day after the last treatment the rats were overnight fasted and then sacrificed. Macroscopic measurement (genital hiatus, vaginal length) were taken and the vagina was dissected out carefully to avoid any injury to the vagina. The mid section of the vagina was utilized for histology (H and E stain, Masson's trichrome stain) and immunofluorescence and the rest of the vagina was used for RNA extraction and RT-PCR.

As to `O.O.O.O.O.O.O.O=S(=O)([O-])[O-].[Zn+2]` [zinc sulfate, zinc sulfate heptahydrate], in experiment [1], the vaginal epithelial thickness was 79±21 μm, the vaginal muscularis thickness worked out at 155±58 μm, the “vaginal lamina propria thickness” value was determined as 242±78 μm and the “vaginal thickness (all three layers of the vagina)” value was found to be 477±106 μm. Besides, in experiment [1], the “vaginal epithelial cornification rate” value is 87% and the “lamina propria collagen fiber compactness” value is on record as 3.5±0.5 relative units. Also, in experiment [2], the “genital hiatus (distance between the external urethral meatus and the mid anus)” value amounted to 14.5±2.5 mm; the vaginal length came to 15.6±4.0 mm.
On to `Cc1cc(SCc2sc(-c3ccc(C(F)(F)F)cc3)nc2C)ccc1OCC(=O)O` [GW501516, 2-[2-methyl-4-([4-methyl-2-[4-(trifluoromethyl)phenyl)-1,3-thiazol-5-yl]methylsulfanyl]phenoxy]acetic acid], for which, in experiment [1], the vaginal epithelial thickness amounted to 54±23 μm, the vaginal muscularis thickness came to 130±50 μm, the “vaginal lamina propria thickness” value is 192±68 μm and the “vaginal thickness (all three layers of the vagina)” value was determined as 377±98 μm. Also, in experiment [1], the “vaginal epithelial cornification rate” value was found to be 25% and the “lamina propria collagen fiber compactness” value amounted to 4.0±0.5 relative units. Besides, in experiment [2], the “genital hiatus (distance between the external urethral meatus and the mid anus)” value is reported as 14.7±1.1 mm; the vaginal length came out at 15.5±1.0 mm.
